# Measurements taken from patent publication US20120029190A1, “COMPOUNDS FOR TREATING DISORDERS MEDIATED BY METABOTROPIC GLUTAMATE RECEPTOR 5, AND METHODS OF USE THEREOF” (priority 2009, published 2012).
# Target: T1, human recombinant mGluR5 receptor (Homo sapiens, UniProt P41594)
# T1 construct: expressed in transfected cells; expression induced with doxycycline
# Assay: mGluR5 in vitro functional assay (aequorin cell line, inhibition of glutamate EC80 response)
# Type: cell-based
# Conditions: Table 1; aequorin cell line expressing human mGluR5, reference agonist glutamate at EC80; obtained in duplicate; read-out: IC50
# Description: B. mGluR5 In Vitro Functional Assay
# The functional assay utilized an aequorin cell line expressing human recombinant mGluR5 receptor, an inducible cell line that expresses the human receptor under the control of a promoter induced by doxycycline.
# mGluR5 cells in mid-log phase, grown 18 hours prior to the test in antibiotic-free media supplemented with doxycycline (600 ng/mL), were detached by gentle flushing with PBS-EDTA ([…]). The cells were recovered by centrifugation and resuspended in assay buffer (HBSS, […], 3 ug/mL glutamate-pyruvate transaminase, […] MEM sodium pyruvate, 0.1% BSA protease-free). Cells were incubated at room temperature for at least 4 hours with Coelenterazine h (Molecular Probes). The cell suspension (60 uL) containing the test compound was mixed with a solution of reference agonist (30 uL) at its EC80, following an incubation of 3 min. after the first injection. The resulting emission of light was recorded using a Hamamatsu Functional Drug Screening System 6000 (FDSS 6000). To standardize the emission of recorded light (determination of the “100% signal’) across plates and across different experiments, some of the wells contained 100 uM digitonin or a saturating concentration (20 mM) of ATP. Plates also contained the reference agonist (glutamate) at a concentration equivalent to the EC80 obtained during assay validation. Percentages of inhibition were calculated on the basis of the activation induced by the reference agonist at a concentration equal to the EC80. Dose-response data were analyzed with XLFit (IDBS) software using nonlinear regression applied to a sigmoidal dose-response model.
# T1 sequence (P41594 21-1212): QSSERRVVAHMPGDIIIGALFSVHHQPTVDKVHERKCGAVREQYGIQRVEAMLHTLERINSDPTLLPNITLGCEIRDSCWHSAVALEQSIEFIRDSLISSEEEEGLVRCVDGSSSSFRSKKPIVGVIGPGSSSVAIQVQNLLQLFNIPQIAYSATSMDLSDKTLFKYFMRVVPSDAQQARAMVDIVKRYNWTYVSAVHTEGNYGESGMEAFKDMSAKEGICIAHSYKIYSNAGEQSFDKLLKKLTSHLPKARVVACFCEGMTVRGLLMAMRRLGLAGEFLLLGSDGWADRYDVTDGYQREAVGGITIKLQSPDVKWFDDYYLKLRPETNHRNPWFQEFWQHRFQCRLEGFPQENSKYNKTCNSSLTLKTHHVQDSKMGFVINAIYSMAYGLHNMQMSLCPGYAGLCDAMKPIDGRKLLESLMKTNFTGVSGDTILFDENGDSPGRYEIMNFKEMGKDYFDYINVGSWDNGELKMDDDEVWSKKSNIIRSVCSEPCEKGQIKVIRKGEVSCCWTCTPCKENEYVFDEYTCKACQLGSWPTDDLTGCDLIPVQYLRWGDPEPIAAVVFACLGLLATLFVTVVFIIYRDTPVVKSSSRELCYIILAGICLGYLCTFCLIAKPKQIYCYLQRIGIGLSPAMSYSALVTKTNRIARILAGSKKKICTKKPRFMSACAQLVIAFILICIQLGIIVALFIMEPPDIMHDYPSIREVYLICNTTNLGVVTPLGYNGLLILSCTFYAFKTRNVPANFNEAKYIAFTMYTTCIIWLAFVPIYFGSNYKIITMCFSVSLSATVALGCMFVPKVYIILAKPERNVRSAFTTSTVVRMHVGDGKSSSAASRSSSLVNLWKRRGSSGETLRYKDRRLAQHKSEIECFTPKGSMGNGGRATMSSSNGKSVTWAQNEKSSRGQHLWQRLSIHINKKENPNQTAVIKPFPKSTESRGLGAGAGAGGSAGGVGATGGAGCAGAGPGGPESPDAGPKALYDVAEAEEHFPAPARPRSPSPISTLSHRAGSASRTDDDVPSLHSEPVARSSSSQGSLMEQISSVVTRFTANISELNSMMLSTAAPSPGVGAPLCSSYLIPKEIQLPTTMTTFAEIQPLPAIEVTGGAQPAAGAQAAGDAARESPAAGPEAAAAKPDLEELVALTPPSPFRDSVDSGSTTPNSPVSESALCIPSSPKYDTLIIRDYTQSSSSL
row,IC50 [µM],Compound
1,< 1,"c1ccc(-c2nc3c(o2)CCN(c2ccccn2)C3)nc1 [Compound 27, 2,5-Di(pyridin-2-yl)-4,5,6,7-tetrahydrooxazolo[4,5-c]pyridine]"
2,< 1,"N#Cc1cccc(N2CCCc3nc(-c4ccccn4)oc3C2)c1 [Compound 93, 3-(2-(Pyridin-2-yl)-7,8-dihydro-4H-oxazolo[5,4-c]azepin-5(6H)-yl)benzonitrile]"
3,< 1,"N#Cc1cc(F)cc(N2CCc3oc(-c4ccccn4)nc3C2)c1 [Compound 30, 3-Fluoro-5-(2-(pyridin-2-yl)-6,7-dihydrooxazolo[4,5-c]pyridin-5(4H)-yl)benzonitrile]"
4,< 1,"N#Cc1cc(N2CCc3oc(-c4ccccn4)nc3C2)ccn1 [Compound 26, 4-(2-(Pyridin-2-yl)-6,7-dihydrooxazolo[4,5-c]pyridin-5(4H)-yl)picolinonitrile]"

# The remaining lines, values behind:
row,Compound,IC50 [µM]
1,"N#Cc1cc(F)cc(N2CCn3nc(-c4ccccn4)nc3C2)c1 [Compound 112, 3-Fluoro-5-(2-(pyridin-2-yl)-5,6-dihydro-[1,2,4]triazolo[1,5-a]pyrazin-7(8H)-yl)benzonitrile]",< 1
2,"COc1cccc(-c2nc3c(o2)CCN(c2ncccc2C#N)C3)c1 [Compound 73, 2-(2-(3-Methoxyphenyl)-6,7-dihydrooxazolo[4,5-c]pyridin-5(4H)-yl)nicotinonitrile]",> 10
3,"N#Cc1ccnc(N2CCc3oc(-c4ccccn4)nc3C2)c1 [Compound 24, 2-(2-(Pyridin-2-yl)-6,7-dihydrooxazolo[4,5-c]pyridin-5(4H)-yl)isonicotinonitrile]",< 1
4,"COc1cc(C#N)cc(N2CCCc3nc(-c4ccccn4)oc3C2)c1 [Compound 91, 3-Methoxy-5-(2-(pyridin-2-yl)-7,8-dihydro-4H-oxazolo[5,4-c]azepin-5(6H)-yl)benzonitrile]",< 1
5,"CC1CN(c2cc(F)cc(C#N)c2)Cc2nc(-c3ccccn3)oc21 (racemic) [Compound 82, (+/−)-3-Fluoro-5-(7-methyl-2-(pyridin-2-yl)-6,7-dihydrooxazolo[4,5-c]pyridin-5(4H)-yl)benzonitrile]",< 1
6,"N#Cc1cccc(N2CCc3nc(-c4cccnc4)oc3C2)c1 [Compound 77, 3-(2-(Pyridin-3-yl)-6,7-dihydrooxazolo[5,4-c]pyridin-5(4H)-yl)benzonitrile]",> 10
7,"Fc1cc(F)cc(N2CCc3nc(-c4ccccn4)oc3C2)c1 [Compound 17, 5-(3,5-Difluorophenyl)-2-(pyridin-2-yl)-4,5,6,7-tetrahydrooxazolo[5,4-c]pyridine]",< 1
8,"FC(F)(F)c1ccc(-c2nc3c(o2)CCN(c2cnccn2)C3)cc1 [Compound 45, 5-(Pyrazin-2-yl)-2-(4-(trifluoromethyl)phenyl)-4,5,6,7-tetrahydrooxazolo[4,5-c]pyridine]",> 10
9,"N#Cc1cccnc1N1CCc2oc(-c3ccccc3)nc2C1 [Compound 37, 2-(2-Phenyl-6,7-dihydrooxazolo[4,5-c]pyridin-5(4H)-yl)nicotinonitrile]",< 10
10,"N#Cc1cc(F)cc(N2CCc3nc(-c4ccccn4)oc3CC2)c1 [Compound 89, 3-Fluoro-5-(2-(pyridin-2-yl)-7,8-dihydro-4H-oxazolo[5,4-d]azepin-6(5H)-yl)benzonitrile]",< 1
11,"c1ccc(-c2nc3c(o2)CN(c2nccs2)CC3)nc1 [Compound 22, 2-(Pyridin-2-yl)-5-(thiazol-2-yl)-4,5,6,7-tetrahydrooxazolo[5,4-c]pyridine]",< 10

# Same assay, conditions: Table 2; aequorin cell line expressing human mGluR5, reference agonist glutamate at EC80; obtained in duplicate; read-out: IC50
row,IC50 [µM],Compound
1,< 1,"N#Cc1cc(F)ccc1N1CCc2oc(-c3ccccn3)nc2C1 [Compound 165, 5-Fluoro-2-(2-(pyridin-2-yl)-6,7-dihydrooxazolo[4,5-c]pyridin-5(4H)-yl)benzonitrile]"
2,< 1,"c1ccc(N2CCc3oc(-c4ccccn4)nc3C2)cc1 [Compound 126, 5-phenyl-2-(pyridin-2-yl)-4,5,6,7-tetrahydrooxazolo[4,5-c]pyridine]"
3,< 1,"Fc1ccccc1N1CCc2oc(-c3ccccn3)nc2C1 [Compound 166, 5-(2-Fluorophenyl)-2-(pyridin-2-yl)-4,5,6,7-tetrahydrooxazolo[4,5-c]pyridine]"
4,< 10,"Fc1cccc(N2CCCc3oc(-c4cnccn4)nc3C2)c1 [Compound 139, 5-(3-fluorophenyl)-2-(pyrazin-2-yl)-5,6,7,8-tetrahydro-4H-oxazolo[4,5-c]azepine]"
5,< 1,"Fc1ccc(N2CCc3oc(-c4ccccn4)nc3C2)cc1Cl [Compound 146, 5-(3-chloro-4-fluorophenyl)-2-(pyridin-2-yl)-4,5,6,7-tetrahydrooxazolo[4,5-c]pyridine]"
6,< 1,"Fc1cccc(N2CCc3oc(-c4ccccn4)nc3C2)c1 [Compound 116, 5-(3-fluorophenyl)-2-(pyridin-2-yl)-4,5,6,7-tetrahydrooxazolo[4,5-c]pyridine]"
7,< 1,"COc1ccc(F)cc1N1CCc2oc(-c3ccccn3)nc2C1 [Compound 179, 5-(5-Fluoro-2-methoxyphenyl)-2-(pyridin-2-yl)-4,5,6,7-tetrahydrooxazolo[4,5-c]pyridine]"

# The next lines start with the compound.
row,Compound,IC50 [µM]
1,"Cc1nc(-c2nc3c(o2)CCCN(c2cc(F)cc(C#N)c2)C3)cs1 [Compound 145, 3-fluoro-5-(2-(2-methylthiazol-4-yl)-7,8-dihydro-4H-oxazolo[4,5-c]azepin-5(6H)-yl)benzonitrile]",< 1
2,"FC(F)(F)c1ccccc1N1CCc2oc(-c3ccccn3)nc2C1 [Compound 182, 2-(Pyridin-2-yl)-5-(2-(trifluoromethyl)phenyl)-4,5,6,7-tetrahydrooxazolo[4,5-c]pyridine]",< 1
3,"N#Cc1cc(F)cc(N2CCc3oc(Cc4ccccc4)nc3C2)c1 [Compound 155, 3-(2-Benzyl-6,7-dihydrooxazolo[4,5-c]pyridin-5(4H)-yl)-5-fluorobenzonitrile]",> 10
4,"N#Cc1cc(F)cc(-c2nc3c(o2)CCN(c2ccccn2)C3)c1 [Compound 164, 3-Fluoro-5-(5-(pyridin-2-yl)-4,5,6,7-tetrahydrooxazolo[4,5-c]pyridin-2-yl)benzonitrile]",< 10
5,"Fc1ccc(-c2nc3c(o2)CCCN(c2cccc(Cl)c2)C3)nc1 [Compound 134, 5-(3-chlorophenyl)-2-(5-fluoropyridin-2-yl)-5,6,7,8-tetrahydro-4H-oxazolo[4,5-c]azepine]",< 1
6,"Clc1ccccc1N1CCc2oc(-c3ccncn3)nc2C1 [Compound 168, 5-(2-Chlorophenyl)-2-(pyrimidin-4-yl)-4,5,6,7-tetrahydrooxazolo[4,5-c]pyridine]",< 10
7,"c1ccc(-c2nc3c(o2)CCN(c2ncccn2)C3)nc1 [Compound 132, 2-(pyridin-2-yl)-5-(pyrimidin-2-yl)-4,5,6,7-tetrahydrooxazolo[4,5-c]pyridine]",< 10
8,"CC1(C)CN(c2ccc(F)cc2Cl)Cc2nc(-c3ccccn3)oc21 [Compound 196, 5-(2-Chloro-4-fluorophenyl)-7,7-dimethyl-2-(pyridin-2-yl)-4,5,6,7-tetrahydrooxazolo[4,5-c]pyridine]",> 10
9,"Fc1cc(F)c(F)c(N2CCc3oc(-c4ccccn4)nc3C2)c1 [Compound 188, 2-(Pyridin-2-yl)-5-(2,3,5-trifluorophenyl)-4,5,6,7-tetrahydrooxazolo[4,5-c]pyridine]",< 1
10,"Cc1nc(N2CCc3oc(-c4ccccn4)nc3C2)cs1 [Compound 163, 5-(2-Methylthiazol-4-yl)-2-(pyridin-2-yl)-4,5,6,7-tetrahydrooxazolo[4,5-c]pyridine]",< 1
